Data published in the supplement of paper PMC10307832.

Legend:
Test in all cases: relative viability (nuclei count vs DMSO), 5 days (fraction); higher = more cells survive
Dinaciclib + Luminespib = compound: CCc1cnn2c(NCc3ccc[n+]([O-])c3)cc(N3CCCC[C@H]3CCO)nc12 [Dinaciclib] + CCNC(=O)c1noc(-c2cc(C(C)C)c(O)cc2O)c1-c1ccc(CN2CCOCC2)cc1 [Luminespib] (partner 0.01 µM)
Procedure, shortened: (§1)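 Lung cancer cell lines were pin-tool dosed in 1536-well plates on the day after seeding, with either a lone drug or a fixed anchor-drug dose plus five library-drug doses (not always all listed) in √10 steps. Nuclei were counted on 4× images after 5 days. Relative viability is the ratio of treated-well to vehicle-well nuclei counts, with each value a median of duplicate plates.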

Dinaciclib + Trametinib = compound: CCc1cnn2c(NCc3ccc[n+]([O-])c3)cc(N3CCCC[C@H]3CCO)nc12 [Dinaciclib] + CC(=O)Nc1cccc(-n2c(=O)n(C3CC3)c(=O)c3c(Nc4ccc(I)cc4F)n(C)c(=O)c(C)c32)c1 [Trametinib] (partner 0.02 µM)
Procedure, shortened: as §1

Dinaciclib + Pictilisib = compound: CCc1cnn2c(NCc3ccc[n+]([O-])c3)cc(N3CCCC[C@H]3CCO)nc12 [Dinaciclib] + CS(=O)(=O)N1CCN(Cc2cc3nc(-c4cccc5[nH]ncc45)nc(N4CCOCC4)c3s2)CC1 [Pictilisib] (partner 1 µM)
Procedure, shortened: as §1

Dinaciclib + Palbociclib = compound: CCc1cnn2c(NCc3ccc[n+]([O-])c3)cc(N3CCCC[C@H]3CCO)nc12 [Dinaciclib] + CC(=O)c1c(C)c2cnc(Nc3ccc(N4CCNCC4)cn3)nc2n(C2CCCC2)c1=O [Palbociclib] (partner 0.5 µM)
Procedure, shortened: as §1

Dinaciclib + Lapatinib = compound: CCc1cnn2c(NCc3ccc[n+]([O-])c3)cc(N3CCCC[C@H]3CCO)nc12 [Dinaciclib] + CS(=O)(=O)CCNCc1ccc(-c2ccc3ncnc(Nc4ccc(OCc5cccc(F)c5)c(Cl)c4)c3c2)o1 [Lapatinib] (partner 2 µM)
Procedure, shortened: as §1

LOU-NH91
relative viability (Dinaciclib + Luminespib; first compound 0.009487 µM): 0.324 | relative viability (Dinaciclib + Luminespib; first compound 0.03 µM): 0.294 | relative viability (Dinaciclib + Luminespib; first compound 0.09487 µM): 0.224 | relative viability (Dinaciclib + Luminespib; first compound 0.3 µM): 0.16 | relative viability (Dinaciclib + Trametinib; first compound 0.009487 µM): 0.756 | relative viability (Dinaciclib + Trametinib; first compound 0.03 µM): 0.405 | relative viability (Dinaciclib + Trametinib; first compound 0.09487 µM): 0.281 | relative viability (Dinaciclib + Trametinib; first compound 0.3 µM): 0.264 | relative viability (Dinaciclib + Pictilisib; first compound 0.009487 µM): 0.507 | relative viability (Dinaciclib + Pictilisib; first compound 0.03 µM): 0.288 | relative viability (Dinaciclib + Pictilisib; first compound 0.09487 µM): 0.254 | relative viability (Dinaciclib + Pictilisib; first compound 0.3 µM): 0.229 | relative viability (Dinaciclib + Palbociclib; first compound 0.009487 µM): 0.508 | relative viability (Dinaciclib + Palbociclib; first compound 0.03 µM): 0.307 | relative viability (Dinaciclib + Palbociclib; first compound 0.09487 µM): 0.268 | relative viability (Dinaciclib + Palbociclib; first compound 0.3 µM): 0.273 | relative viability (Dinaciclib + Lapatinib; first compound 0.009487 µM): 0.738 | relative viability (Dinaciclib + Lapatinib; first compound 0.03 µM): 0.302 | relative viability (Dinaciclib + Lapatinib; first compound 0.09487 µM): 0.254 | relative viability (Dinaciclib + Lapatinib; first compound 0.3 µM): 0.238

LU99A
relative viability (Dinaciclib + Luminespib; first compound 0.009487 µM): 0.177 | relative viability (Dinaciclib + Luminespib; first compound 0.03 µM): 0.149 | relative viability (Dinaciclib + Luminespib; first compound 0.09487 µM): 0.12 | relative viability (Dinaciclib + Luminespib; first compound 0.3 µM): 0.124 | relative viability (Dinaciclib + Trametinib; first compound 0.009487 µM): 0.511 | relative viability (Dinaciclib + Trametinib; first compound 0.03 µM): 0.14 | relative viability (Dinaciclib + Trametinib; first compound 0.09487 µM): 0.127 | relative viability (Dinaciclib + Trametinib; first compound 0.3 µM): 0.146 | relative viability (Dinaciclib + Pictilisib; first compound 0.009487 µM): 0.283 | relative viability (Dinaciclib + Pictilisib; first compound 0.03 µM): 0.134 | relative viability (Dinaciclib + Pictilisib; first compound 0.09487 µM): 0.109 | relative viability (Dinaciclib + Pictilisib; first compound 0.3 µM): 0.122 | relative viability (Dinaciclib + Palbociclib; first compound 0.009487 µM): 0.383 | relative viability (Dinaciclib + Palbociclib; first compound 0.03 µM): 0.124 | relative viability (Dinaciclib + Palbociclib; first compound 0.09487 µM): 0.138 | relative viability (Dinaciclib + Palbociclib; first compound 0.3 µM): 0.106 | relative viability (Dinaciclib + Lapatinib; first compound 0.009487 µM): 0.759 | relative viability (Dinaciclib + Lapatinib; first compound 0.03 µM): 0.121 | relative viability (Dinaciclib + Lapatinib; first compound 0.09487 µM): 0.13 | relative viability (Dinaciclib + Lapatinib; first compound 0.3 µM): 0.127

LXF-289
relative viability (Dinaciclib + Luminespib; first compound 0.009487 µM): 0.642 | relative viability (Dinaciclib + Luminespib; first compound 0.03 µM): 0.106 | relative viability (Dinaciclib + Luminespib; first compound 0.09487 µM): 0.068 | relative viability (Dinaciclib + Luminespib; first compound 0.3 µM): 0.0731 | relative viability (Dinaciclib + Trametinib; first compound 0.009487 µM): 0.682 | relative viability (Dinaciclib + Trametinib; first compound 0.03 µM): 0.307 | relative viability (Dinaciclib + Trametinib; first compound 0.09487 µM): 0.0823 | relative viability (Dinaciclib + Trametinib; first compound 0.3 µM): 0.103 | relative viability (Dinaciclib + Pictilisib; first compound 0.009487 µM): 0.843 | relative viability (Dinaciclib + Pictilisib; first compound 0.03 µM): 0.0778 | relative viability (Dinaciclib + Pictilisib; first compound 0.09487 µM): 0.0596 | relative viability (Dinaciclib + Pictilisib; first compound 0.3 µM): 0.0483 | relative viability (Dinaciclib + Palbociclib; first compound 0.009487 µM): 0.598 | relative viability (Dinaciclib + Palbociclib; first compound 0.03 µM): 0.213 | relative viability (Dinaciclib + Palbociclib; first compound 0.09487 µM): 0.0821 | relative viability (Dinaciclib + Palbociclib; first compound 0.3 µM): 0.108 | relative viability (Dinaciclib + Lapatinib; first compound 0.009487 µM): 0.926 | relative viability (Dinaciclib + Lapatinib; first compound 0.03 µM): 0.167 | relative viability (Dinaciclib + Lapatinib; first compound 0.09487 µM): 0.106 | relative viability (Dinaciclib + Lapatinib; first compound 0.3 µM): 0.0884

NCI-H23
relative viability (Dinaciclib + Luminespib; first compound 0.009487 µM): 0.197 | relative viability (Dinaciclib + Luminespib; first compound 0.03 µM): 0.172 | relative viability (Dinaciclib + Luminespib; first compound 0.09487 µM): 0.168 | relative viability (Dinaciclib + Luminespib; first compound 0.3 µM): 0.148 | relative viability (Dinaciclib + Trametinib; first compound 0.009487 µM): 0.305 | relative viability (Dinaciclib + Trametinib; first compound 0.03 µM): 0.164 | relative viability (Dinaciclib + Trametinib; first compound 0.09487 µM): 0.13 | relative viability (Dinaciclib + Trametinib; first compound 0.3 µM): 0.122 | relative viability (Dinaciclib + Pictilisib; first compound 0.009487 µM): 0.41 | relative viability (Dinaciclib + Pictilisib; first compound 0.03 µM): 0.148 | relative viability (Dinaciclib + Pictilisib; first compound 0.09487 µM): 0.126 | relative viability (Dinaciclib + Pictilisib; first compound 0.3 µM): 0.145 | relative viability (Dinaciclib + Palbociclib; first compound 0.009487 µM): 0.304 | relative viability (Dinaciclib + Palbociclib; first compound 0.03 µM): 0.167 | relative viability (Dinaciclib + Palbociclib; first compound 0.09487 µM): 0.0992 | relative viability (Dinaciclib + Palbociclib; first compound 0.3 µM): 0.103 | relative viability (Dinaciclib + Lapatinib; first compound 0.009487 µM): 0.31 | relative viability (Dinaciclib + Lapatinib; first compound 0.03 µM): 0.128 | relative viability (Dinaciclib + Lapatinib; first compound 0.09487 µM): 0.12 | relative viability (Dinaciclib + Lapatinib; first compound 0.3 µM): 0.129

NCI-H322M
relative viability (Dinaciclib + Luminespib; first compound 0.009487 µM): 0.431 | relative viability (Dinaciclib + Luminespib; first compound 0.03 µM): 0.243 | relative viability (Dinaciclib + Luminespib; first compound 0.09487 µM): 0.265 | relative viability (Dinaciclib + Luminespib; first compound 0.3 µM): 0.229 | relative viability (Dinaciclib + Trametinib; first compound 0.009487 µM): 0.623 | relative viability (Dinaciclib + Trametinib; first compound 0.03 µM): 0.36 | relative viability (Dinaciclib + Trametinib; first compound 0.09487 µM): 0.341 | relative viability (Dinaciclib + Trametinib; first compound 0.3 µM): 0.391 | relative viability (Dinaciclib + Pictilisib; first compound 0.009487 µM): 0.497 | relative viability (Dinaciclib + Pictilisib; first compound 0.03 µM): 0.262 | relative viability (Dinaciclib + Pictilisib; first compound 0.09487 µM): 0.2 | relative viability (Dinaciclib + Pictilisib; first compound 0.3 µM): 0.583 | relative viability (Dinaciclib + Palbociclib; first compound 0.009487 µM): 0.441 | relative viability (Dinaciclib + Palbociclib; first compound 0.03 µM): 0.392 | relative viability (Dinaciclib + Palbociclib; first compound 0.09487 µM): 0.373 | relative viability (Dinaciclib + Palbociclib; first compound 0.3 µM): 0.384 | relative viability (Dinaciclib + Lapatinib; first compound 0.009487 µM): 0.637 | relative viability (Dinaciclib + Lapatinib; first compound 0.03 µM): 0.325 | relative viability (Dinaciclib + Lapatinib; first compound 0.09487 µM): 0.243 | relative viability (Dinaciclib + Lapatinib; first compound 0.3 µM): 0.201

NCI-H441
relative viability (Dinaciclib + Luminespib; first compound 0.009487 µM): 0.262 | relative viability (Dinaciclib + Luminespib; first compound 0.03 µM): 0.18 | relative viability (Dinaciclib + Luminespib; first compound 0.09487 µM): 0.177 | relative viability (Dinaciclib + Luminespib; first compound 0.3 µM): 0.193 | relative viability (Dinaciclib + Trametinib; first compound 0.009487 µM): 0.42 | relative viability (Dinaciclib + Trametinib; first compound 0.03 µM): 0.156 | relative viability (Dinaciclib + Trametinib; first compound 0.09487 µM): 0.137 | relative viability (Dinaciclib + Trametinib; first compound 0.3 µM): 0.114 | relative viability (Dinaciclib + Pictilisib; first compound 0.009487 µM): 0.589 | relative viability (Dinaciclib + Pictilisib; first compound 0.03 µM): 0.126 | relative viability (Dinaciclib + Pictilisib; first compound 0.09487 µM): 0.111 | relative viability (Dinaciclib + Pictilisib; first compound 0.3 µM): 0.115 | relative viability (Dinaciclib + Palbociclib; first compound 0.009487 µM): 0.197 | relative viability (Dinaciclib + Palbociclib; first compound 0.03 µM): 0.148 | relative viability (Dinaciclib + Palbociclib; first compound 0.09487 µM): 0.125 | relative viability (Dinaciclib + Palbociclib; first compound 0.3 µM): 0.113

NCI-H522
relative viability (Dinaciclib + Luminespib; first compound 0.009487 µM): 1.2 | relative viability (Dinaciclib + Luminespib; first compound 0.03 µM): 0.653 | relative viability (Dinaciclib + Luminespib; first compound 0.09487 µM): 0.465 | relative viability (Dinaciclib + Luminespib; first compound 0.3 µM): 0.276 | relative viability (Dinaciclib + Trametinib; first compound 0.009487 µM): 0.757 | relative viability (Dinaciclib + Trametinib; first compound 0.03 µM): 0.795 | relative viability (Dinaciclib + Trametinib; first compound 0.09487 µM): 0.255 | relative viability (Dinaciclib + Trametinib; first compound 0.3 µM): 0.251 | relative viability (Dinaciclib + Palbociclib; first compound 0.009487 µM): 1.19 | relative viability (Dinaciclib + Palbociclib; first compound 0.03 µM): 0.855 | relative viability (Dinaciclib + Palbociclib; first compound 0.09487 µM): 0.316 | relative viability (Dinaciclib + Palbociclib; first compound 0.3 µM): 0.255

NCI-H596
relative viability (Dinaciclib + Luminespib; first compound 0.009487 µM): 0.564 | relative viability (Dinaciclib + Luminespib; first compound 0.03 µM): 0.566 | relative viability (Dinaciclib + Luminespib; first compound 0.09487 µM): 0.174 | relative viability (Dinaciclib + Luminespib; first compound 0.3 µM): 0.186 | relative viability (Dinaciclib + Trametinib; first compound 0.009487 µM): 0.711 | relative viability (Dinaciclib + Trametinib; first compound 0.03 µM): 0.692 | relative viability (Dinaciclib + Trametinib; first compound 0.09487 µM): 0.19 | relative viability (Dinaciclib + Trametinib; first compound 0.3 µM): 0.19 | relative viability (Dinaciclib + Pictilisib; first compound 0.009487 µM): 0.418 | relative viability (Dinaciclib + Pictilisib; first compound 0.03 µM): 0.245 | relative viability (Dinaciclib + Pictilisib; first compound 0.09487 µM): 0.157 | relative viability (Dinaciclib + Pictilisib; first compound 0.3 µM): 0.106 | relative viability (Dinaciclib + Lapatinib; first compound 0.009487 µM): 0.943 | relative viability (Dinaciclib + Lapatinib; first compound 0.03 µM): 0.341 | relative viability (Dinaciclib + Lapatinib; first compound 0.09487 µM): 0.187 | relative viability (Dinaciclib + Lapatinib; first compound 0.3 µM): 0.16

SW 900
relative viability (Dinaciclib + Luminespib; first compound 0.009487 µM): 0.19 | relative viability (Dinaciclib + Luminespib; first compound 0.03 µM): 0.176 | relative viability (Dinaciclib + Luminespib; first compound 0.09487 µM): 0.0768 | relative viability (Dinaciclib + Luminespib; first compound 0.3 µM): 0.0536 | relative viability (Dinaciclib + Trametinib; first compound 0.009487 µM): 0.805 | relative viability (Dinaciclib + Trametinib; first compound 0.03 µM): 0.477 | relative viability (Dinaciclib + Trametinib; first compound 0.09487 µM): 0.177 | relative viability (Dinaciclib + Trametinib; first compound 0.3 µM): 0.155 | relative viability (Dinaciclib + Palbociclib; first compound 0.009487 µM): 0.57 | relative viability (Dinaciclib + Palbociclib; first compound 0.03 µM): 0.318 | relative viability (Dinaciclib + Palbociclib; first compound 0.09487 µM): 0.13 | relative viability (Dinaciclib + Palbociclib; first compound 0.3 µM): 0.158
